These results are taken from US20170204126A1, “MOLYBDENUM- AND TUNGSTEN-CONTAINING PRECURSORS FOR THIN FILM DEPOSITION” (L'Air Liquide, Société Anonyme pour l'Etude et …, priority 2014, published 2017).

The nature of series [1]: Solubility of the compound in common solvents. To be noted: for Solubility in alkanes and toluene: at room temperature.
Protocol: Measurement Conditions: • Sample weight: 26.00 mg • Atmosphere: Nitrogen, 1 atmospheric pressure • Heating rate: 10° C.·min^−1 • Solubility of the compound in common solvents
Measurement Conditions: • Sample weight: 24.57 mg • Atmosphere: Nitrogen, 1 atmospheric pressure • Heating rate: 10° C.·min^−1 • Solubility of the compound in common solvents
Measurement Conditions: • Sample weight: 21.19 mg • Atmosphere: Nitrogen, 1 atmospheric pressure • Heating rate: 10° C.·min^−1 • Solubility of the compound in common solvents
Measurement Conditions: • Sample weight: 23.09 mg • Atmosphere: Nitrogen, 1 atmospheric pressure • Heating rate: 10° C.·min^−1 • Solubility of the compound in common solvents
Measurement Conditions: • Sample weight: 19.79 mg • Atmosphere: Nitrogen, 1 atmospheric pressure • Heating rate: 10° C.·min^−1 • Solubility of the compound in common solvents
Measurement Conditions: • Sample weight: 27.43 mg • Atmosphere: Nitrogen, 1 atmospheric pressure • Heating rate: 10° C.·min^−1 • Solubility of the compound in common solvents
Series [2] is described as follows: Thermal Stability Test (storage at 50° C.). It counts as physicochemical. As for the experimental part:
The product was stored at 50° C. for 14 and 44 days. The W(OsBu)6 content after 14 days was 1.1 atomic %. The W(OsBu)6 content after 44 days was 1.2 atomic %.

As for `CC(C)[O][W](=[O])([O]C(C)C)([O]C(C)C)[O]C(C)C` [W(═O)(OiPr)4, W(═O)(OCH(CH3)2)4], the Solubility in alkanes entry in series [1] (alkanes) is “very low solubility”. Further, the Solubility in toluene entry in series [1] (toluene at 60° C.) is on record as “soluble”. In addition, the Vapor pressure in the series “Vapor pressure” (at 103° C.) is given as 1 Torr. On to “tungsten oxo sec-butoxide [W(═O)(OsBu)4]”, for which the results for the “W(OsBu)6 content after storage” value in series [2] (stored at 50° C. for 14 days) and in series [2] (stored at 50° C. for 44 days) were 1.1 atomic % and 1.2 atomic %, respectively. With `CCC[O][W](=[O])([O]CCC)([O]CCC)[O]CCC` [W(═O)(OnPr)4], the “Solubility in alkanes and toluene” value in series [1] is “very low solubility”. For the molecule `CC(C)C(C)[O][W](=[O])([O]C(C)C(C)C)([O]C(C)C(C)C)[O]C(C)C(C)C` (stereo not shown) [W(═O)(OCH(CH3)(CH(CH3)2))4], the “Solubility in common organic solvents” value in series [1] (hexane, acetone, chloroform, and/or toluene) is given as “miscible”. Also, the Vapor pressure in the series “Vapor pressure” (at 147° C.) amounted to 1 Torr.

Regarding `CCCC[O][W](=[O])([O]CCCC)([O]CCCC)[O]CCCC` [W(═O)(OnBu)4], the “Solubility in alkanes and toluene” value in series [1] was “very low solubility”. As to `CC(C)C[O][W](=[O])([O]CC(C)C)([O]CC(C)C)[O]CC(C)C` [W(═O)(OiBu)4, W(═O)(OCH2CH(CH3)2)4], the “Solubility in alkanes and in toluene” value in series [1] (toluene up to 80° C.) was “very low solubility”.
